{"source": "patent US20130190368A1", "about": "“NOVEL POLYMORPHS OF FEBUXOSTAT” (HETERO RESEARCH FOUNDATION, priority 2010, published 2013)", "origin": "cited, not measured here", "details": "compared to allopurinol"}
{"smiles": "Cc1nc(-c2ccc(OCC(C)C)c(C#N)c2)sc1C(=O)O", "note": "[febuxostat, 2-[3-cyano-4-(2-methylpropoxy)phenyl]-4-methyl-5-thiazolecarboxylic acid]", "values": [{"measurement": "amount of initial gout flares or surface area of gout tophi", "value": "no difference"}, {"measurement": "individuals with decreased levels of uric acid", "value": "more individuals treated with febuxostat had decreased levels of uric acid"}]}
